Measurements taken from patent US20250127906A1, “SMALL-MOLECULE DEGRADERS OF CDK8 AND CDK19” (University of South Carolina, priority 2021, published 2025).
pIC50: −log10 of the molar value.

Key:
[1] = target: T1, CDK8 (Canis lupus familiaris, UniProt A0A8I3PYQ8); assay: CDK8 degradation in canine Abrams osteosarcoma cells; type: cell-based
T1 construct: endogenous in cells; host or cells: Abrams (canine osteosarcoma)
T1 sequence (A0A8I3PYQ8 1-464): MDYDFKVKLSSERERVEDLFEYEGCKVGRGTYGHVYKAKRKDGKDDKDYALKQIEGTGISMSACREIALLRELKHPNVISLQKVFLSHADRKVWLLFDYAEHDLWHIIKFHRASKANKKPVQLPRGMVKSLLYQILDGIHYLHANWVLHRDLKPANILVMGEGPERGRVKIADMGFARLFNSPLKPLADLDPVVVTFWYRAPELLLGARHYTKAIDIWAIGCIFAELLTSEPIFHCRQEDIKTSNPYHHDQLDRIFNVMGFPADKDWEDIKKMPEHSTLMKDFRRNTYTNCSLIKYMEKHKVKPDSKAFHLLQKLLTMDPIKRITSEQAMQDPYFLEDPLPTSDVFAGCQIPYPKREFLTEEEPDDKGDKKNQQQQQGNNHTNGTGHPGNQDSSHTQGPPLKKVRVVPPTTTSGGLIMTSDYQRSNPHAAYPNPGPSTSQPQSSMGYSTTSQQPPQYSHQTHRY
From the text: Both the extent and the kinetics of CDK8 degradation were similar between two cell lines, with the degradation reaching maximum at about 8 hrs of PROTAC treatment.

[2] = test system: CDK8/CDK19/CCNC protein degradation and STAT1 S727 phosphorylation; assay: Wash-off study in HEK-293 cells, Western blot; type: cell-based, human; conditions: HEK-293, within 24 hours after removal of drug-containing media
[3] = test system: Jurkat cells; assay: Long-term growth of Jurkat cells under continuous treatment; type: cell-based, human; conditions: 300 nM continuous
Experimental: The anti-proliferative effects of a PROTAC and a kinase inhibitor were compared in leukemia cell lines. In the long-term treatment experiment shown in FIG. 11A, Jurkat cells (0.1 million cells) were continuously treated with vehicle control (0.1% DMSO), 300 nM BI-1347 or 300 nM IA7886 for 53 days (each condition in biological triplicates). Every 7-8 days, live cells were counted using BioRAD TC20 Automated Cell Counter with trypan blue staining: 0.1 million live cells were passaged to a new T25 flask to propagate under the same treatment conditions. The survival fraction was calculated by dividing the accumulated number of drug-treated cells with the accumulated number of vehicle-treated cells. […] This sustained inhibition property of PROTAC was also observed in MV4-11, a leukemia cell line highly sensitive to CDK8/19 kinase inhibitors.

[4] = test system: Jurkat cells; assay: Wash-off growth study in Jurkat cells; type: cell-based, human; conditions: pre-treated 200 nM for 8 days, then drug-free vs drug-containing media for 8 days
Experimental: We also compared the stability of short-term growth inhibition induced by a PROTAC and a kinase inhibitor in a wash-off study in Jurkat cells. In the experiment shown in FIG. 11C, Jurkat cells were pre-treated with 200 nM BI-1347 or IA7886 for 8 days before removal of drug-containing media and further cultured in either drug-containing (200 nM) or drug-free media for 8 days before counting cell numbers. Removal of BI-1347 led to 7.1 fold increase of the cell number while removal of IA7886 increased the cell number only 1.8 fold (FIG. 11C).

[5] = test system: KMS-12-BM cells; assay: Concentration dependence of KMS-12-BM growth inhibition (CCK-8 assay); type: cell-based; conditions: Homo sapiens, 96 h, over 4 days
Experimental: Concentration dependence of KMS-12-BM growth inhibition over 4 days was determined for BI-1347 CDK8/19 kinase inhibitor and IA7886 PROTAC using CCK-8 assay (FIG. 13B).

[6] = test system: RPMI 8226 cells; assay: Concentration dependence of RPMI 8226 growth inhibition; type: cell-based; conditions: Homo sapiens, 96 h; RPMI 8226, 4-day growth inhibition
[7] = test system: CCL12; assay: CCL12 mRNA expression in CT26 tumors in Balb/c mice (QPCR); type: in vivo; conditions: oral gavage 20 mg/kg, 2, 8 or 24 hrs after dosing
Experimental: CT26 cells were injected subcutaneously into syngeneic Balb/c female mice and allowed to grow to 150˜200 mm^3. Tumor-bearing mice then received PROTACs IA7882 or IA7886 by oral gavage at 20 mg/kg in 30% propylene glycol/70% PEG-400 vehicle. Tumors were collected 2, 8 or 24 hrs after dosing and used to measure protein levels of CDK8, pS727 STAT1 and total STAT1 (by western blotting) and mRNA expression of CCL12, a gene that is inhibited by different CDK8/19 inhibitors in CT26 tumors in vivo (by QPCR).

[8] = target: T2, CDK8 (Homo sapiens, UniProt P49336); assay: CDK8 degradation in RPMI 8226 cells (Western blot); type: cell-based; set-up: host or cells: RPMI 8226; conditions: RPMI 8226, concentrations used in FIG. 14A
Target sequence in this assay (P49336 whole entry): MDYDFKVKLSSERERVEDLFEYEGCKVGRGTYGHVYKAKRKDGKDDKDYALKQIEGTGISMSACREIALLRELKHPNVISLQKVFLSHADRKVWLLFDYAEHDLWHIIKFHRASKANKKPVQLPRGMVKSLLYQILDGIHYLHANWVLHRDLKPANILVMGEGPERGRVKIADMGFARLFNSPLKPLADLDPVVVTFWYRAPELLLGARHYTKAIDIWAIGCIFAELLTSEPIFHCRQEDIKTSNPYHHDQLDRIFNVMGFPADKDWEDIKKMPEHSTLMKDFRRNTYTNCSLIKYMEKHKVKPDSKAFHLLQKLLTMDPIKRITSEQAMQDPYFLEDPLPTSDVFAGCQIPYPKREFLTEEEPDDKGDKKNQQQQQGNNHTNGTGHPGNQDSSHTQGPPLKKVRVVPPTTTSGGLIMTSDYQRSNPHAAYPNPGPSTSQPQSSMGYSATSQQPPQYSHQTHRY
Target sequence in this assay (P24863 whole entry partner): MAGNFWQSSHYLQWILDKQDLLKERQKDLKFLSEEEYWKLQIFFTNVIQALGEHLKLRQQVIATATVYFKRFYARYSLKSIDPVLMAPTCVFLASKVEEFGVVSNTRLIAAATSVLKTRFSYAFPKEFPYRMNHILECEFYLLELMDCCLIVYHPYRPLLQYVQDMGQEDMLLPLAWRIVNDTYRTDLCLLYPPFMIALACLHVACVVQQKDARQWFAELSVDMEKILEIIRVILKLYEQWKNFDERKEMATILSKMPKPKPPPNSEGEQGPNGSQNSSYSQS

[9] = target: T2, CDK8; assay: CDK8 degradation in Loucy T-cell leukemia cells lacking Cyclin C; type: cell-based; set-up: endogenous in cells; host or cells: Loucy; conditions: Loucy cells (lacking CCNC), 24 hr treatment
From the text: (§1) This cell line, however, is unique in lacking Cyclin C (CCNC), the binding partner of CDK8/19. To test if the absence of CDK8-bound CCNC was responsible for the loss of IA7843 CDK8-degrading activity, we have tested the effect of IA7843 on a derivative of HEK-293cells with CRISPR-mediated knockout of CCNC.
Target sequence in this assay (P49336 whole entry): as the sequence (P49336 whole entry) above

[10] = target: T3, CDK19 (Homo sapiens, UniProt Q9BWU1); assay: CDK19 degradation in Loucy T-cell leukemia cells lacking Cyclin C; type: cell-based; set-up: endogenous in cells; host or cells: Loucy; conditions: Loucy cells (lacking CCNC), 24 hr treatment
From the text: as §1
Target sequence in this assay (Q9BWU1 whole entry): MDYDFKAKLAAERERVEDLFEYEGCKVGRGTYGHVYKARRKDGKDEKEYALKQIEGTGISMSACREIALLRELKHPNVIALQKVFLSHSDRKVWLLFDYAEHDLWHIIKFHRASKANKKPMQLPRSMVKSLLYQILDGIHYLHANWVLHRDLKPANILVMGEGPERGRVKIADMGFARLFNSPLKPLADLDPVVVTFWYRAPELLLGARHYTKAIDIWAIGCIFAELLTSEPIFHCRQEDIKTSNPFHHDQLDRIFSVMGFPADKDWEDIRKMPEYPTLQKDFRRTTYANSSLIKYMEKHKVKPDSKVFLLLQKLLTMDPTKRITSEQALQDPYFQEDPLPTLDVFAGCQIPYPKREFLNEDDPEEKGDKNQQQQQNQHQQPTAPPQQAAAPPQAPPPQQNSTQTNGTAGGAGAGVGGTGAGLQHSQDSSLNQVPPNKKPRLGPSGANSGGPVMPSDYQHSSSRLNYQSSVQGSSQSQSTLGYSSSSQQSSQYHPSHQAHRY

[11] = target: T3, CDK19; assay: CDK19 degradation in HEK-293 cells (Western blot); type: cell-based; set-up: PROTACs on CDK8 and CDK19 degradation in HEK-293cells; endogenous in cells; host or cells: HEK-293; conditions: concentration degrading CDK19 to half of level in untreated cells
From the text: Furthermore, the degradation of both CDK8 and CDK19 by the PROTACs is also seen to decrease the levels of their binding partner cyclin C (CCNC) (FIG. 2B, D, E), which is known to be protected from proteolytic degradation by its interaction with CDK8 (Barette et al., 2001).
FIGS. 2F and 2G show the effects of different concentrations of potent Senexin C- and BI-1347-based PROTACs on CDK8 and CDK19 degradation in HEK-293cells. Based on these assays, we calculated DC50 values that correspond to PROTAC concentrations inducing degradation of CDK8 and CDK19 to the half of protein level in untreated cells. The corresponding CDK8 DC50 values were 46 nM for IA7843, 6.6 nM for IA7882 and 2.8 nM for IA7886, and CDK19 DC50 values were 1 μM for IA7843, 25 nM for IA7882 and 10 nM for IA7886.
Target sequence in this assay (Q9BWU1 whole entry): as above
Target sequence in this assay (P24863 whole entry partner): as the sequence (P24863 whole entry partner) above

## O=C(CCCNc1cccc2c1C(=O)N(C1CCC(=O)NC1=O)C2=O)NCCCCCCCCCCC(=O)N1CCN(C(=O)Cn2cc(-c3ccc(-c4cncc5ccccc45)cc3)cn2)CC1 (stereo not drawn) [IA7886, 4-[[2-(2,6-dioxo-3-piperidyl)-1,3-dioxo-isoindolin-4-yl]amino]-N-[11-[4-[2-[4-[4-(4-isoquinolyl)phenyl]pyrazol-1-yl]acetyl]piperazin-1-yl]-11-oxo-undecyl]butanamide]
[1]
  CDK8 degradation (in words): induce CDK8 degradation in both cell lines
[2]
  effects on CDK8/CDK19/CCNC protein degradation and STAT1 S727 phosphorylation after removal of drug: remained nearly unchanged
[3]
  growth inhibition, first two passages (14 days): had a stronger growth inhibition effect than the PROTAC IA7886
[3]; up to 53 days
  growth rates in later passages: growth rates of IA-7886 treated cells were decreasing
[4]
  increase of the cell number upon removal of drug: 1.8 fold
[5]
  pIC50: 7.74
[6]
  pIC50: 7.62
[7]
  levels of CCL12 mRNA in tumors: decreased in tumors treated with IA7882 or IA7886 2 hrs or 8 hrs (but not 24 hrs) after dosing
[8]
  CDK8 degradation (in words): efficiently degraded CDK8 in RPMI 8226 cells
[9]
  CDK8 degradation (in words): efficiently degraded CDK8 and CDK19
[10]
  CDK19 degradation (in words): efficiently degraded CDK8 and CDK19
[11]
  DC50: 10 nM
